According to US20210214385A1, “INHIBITORS OF D-AMINO ACID OXIDASE AND USES THEREOF” (SyneuRx International (Taiwan) Corp., priority 2018, published 2021):
Values joined by “and” are separate entries in the source; they are usually repeats but may differ in a detail not shown here. Identical values can stand only once.

target: human D-amino acid oxidase (hDAAO) (Homo sapiens, UniProt P14920); assay: In vitro measurement of human D-amino acid oxidase (hDAAO) activity, D-Serine substrate, Amplex Red fluorescence; assay type: biochemical
Sequence (P14920 whole entry): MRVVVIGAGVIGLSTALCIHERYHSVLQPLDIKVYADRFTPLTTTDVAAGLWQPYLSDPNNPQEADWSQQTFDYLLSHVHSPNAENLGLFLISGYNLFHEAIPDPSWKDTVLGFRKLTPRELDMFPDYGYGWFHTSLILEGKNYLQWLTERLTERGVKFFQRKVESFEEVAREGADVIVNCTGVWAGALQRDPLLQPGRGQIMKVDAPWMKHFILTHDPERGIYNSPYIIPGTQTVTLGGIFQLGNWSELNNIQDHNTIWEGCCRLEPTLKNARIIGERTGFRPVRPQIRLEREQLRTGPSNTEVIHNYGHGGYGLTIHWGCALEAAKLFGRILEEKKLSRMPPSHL

Question: How did the IC50 turn out when `O=C(OC[C@H]1O[C@@H](OC(=O)c2cc(O)c(O)c(OC(=O)c3cc(O)c(O)c(OC(=O)c4cc(O)c(O)c(O)c4)c3)c2)[C@H](OC(=O)c2cc(O)c(O)c(OC(=O)c3cc(O)c(O)c(OC(=O)c4cc(O)c(O)c(O)c4)c3)c2)[C@@H](OC(=O)c2cc(O)c(O)c(OC(=O)c3cc(O)c(O)c(OC(=O)c4cc(O)c(O)c(O)c4)c3)c2)[C@@H]1OC(=O)c1cc(O)c(O)c(OC(=O)c2cc(O)c(O)c(OC(=O)c3cc(O)c(O)c(O)c3)c2)c1)c1cc(O)c(O)c(OC(=O)c2cc(O)c(O)c(OC(=O)c3cc(O)c(O)c(O)c3)c2)c1` [Compound 37, (2S,3R,4S,5R,6R)-6-(((3-((3,4-dihydroxy-5-((3,4,5-trihydroxybenzoyl)oxy)benzoyl)oxy)-4,5-dihydroxybenzoyl)oxy)methyl)tetrahydro-2H-pyran-2,3,4,5-tetrayl tetrakis(3-((3,4-dihydroxy-5-((3,4,5-trihydroxybenzoyl)oxy)benzoyl)oxy)-4,5-dihydroxybenzoate)] was run?
Answer: 11.8 nM and 12 nM

Question: Which IC50 does the source give for `O=C(Oc1ccccc1)c1cc(O)c(O)c(OC(=O)c2cc(O)c(O)c(OC(=O)c3cc(O)c(O)c(OC(=O)c4cc(O)c(O)c(OC(=O)c5cc(O)c(O)c(OC(=O)c6cc(O)c(O)c(OC(=O)c7cc(O)c(O)c(O)c7)c6)c5)c4)c3)c2)c1` [Compound 48, 5-((5-((5-((5-((5-((2,3-dihydroxy-5-(phenoxycarbonyl)phenoxy)carbonyl)-2,3-dihydroxyphenoxy)carbonyl)-2,3-dihydroxyphenoxy)carbonyl)-2,3-dihydroxyphenoxy)carbonyl)-2,3-dihydroxyphenoxy)carbonyl)-2,3-dihydroxyphenyl 3,4,5-trihydroxybenzoate] here?
Answer: 17.3 nM and 17 nM

Question: For `O=C(Oc1cccc(OC(=O)c2cc(O)c(O)c(OC(=O)c3cc(O)c(O)c(OC(=O)c4cc(O)c(O)c(OC(=O)c5cc(O)c(O)c(OC(=O)c6cc(O)c(O)c(O)c6)c5)c4)c3)c2)c1)c1cc(O)c(O)c(OC(=O)c2cc(O)c(O)c(OC(=O)c3cc(O)c(O)c(OC(=O)c4cc(O)c(O)c(OC(=O)c5cc(O)c(O)c(O)c5)c4)c3)c2)c1` [Compound 51, 1,3-phenylene bis(3-((3-((3-((3,4-dihydroxy-5-((3,4,5-trihydroxybenzoyl)oxy)benzoyl)oxy)-4,5-dihydroxybenzoyl)oxy)-4,5-dihydroxybenzoyl)oxy)-4,5-dihydroxybenzoate)], which IC50 is on record?
Answer: 8.58 nM and 9 nM

Question: Which IC50 does the source give for `O=C(Oc1cccc(OC(=O)c2cc(O)c(O)c(OC(=O)c3cc(O)c(O)c(OC(=O)c4cc(O)c(O)c(OC(=O)c5cc(O)c(O)c(OC(=O)c6cc(O)c(O)c(OC(=O)c7cc(O)c(O)c(OC(=O)c8cc(O)c(O)c(O)c8)c7)c6)c5)c4)c3)c2)c1)c1cc(O)c(O)c(OC(=O)c2cc(O)c(O)c(OC(=O)c3cc(O)c(O)c(OC(=O)c4cc(O)c(O)c(OC(=O)c5cc(O)c(O)c(OC(=O)c6cc(O)c(O)c(OC(=O)c7cc(O)c(O)c(O)c7)c6)c5)c4)c3)c2)c1` [Compound 53, 1,3-phenylene bis(3-((3-((3-((3-((3-((3,4-dihydroxy-5-((3,4,5-trihydroxybenzoyl)oxy)benzoyl)oxy)-4,5-dihydroxybenzoyl)oxy)-4,5-dihydroxybenzoyl)oxy)-4,5-dihydroxybenzoyl)oxy)-4,5-dihydroxybenzoyl)oxy)-4,5-dihydroxybenzoate)] here?
Answer: 5.8 nM and 6 nM
